Test results published in US8399452B2, “Dibenzo[b,f][1,4]oxazepin-11-yl-N-hydroxybenzamides as HDAC inhibitors” (Methylgene Inc., priority 2006, dated 2013).

molecular target: histone deacetylase (HDAC Enzyme); assay: Inhibition of Histone Deacetylase Enzymatic Activity (Boc-Lys(Ac)-AMC, Fluor-de-Lys developer); assay type: biochemical; settings: Table 9; read-out: HDAC Inhibition (IC50 μM) HDAC Enzyme
Protocol: The following protocol is used to assay the compounds of the invention.
The mixture is pre-incubated for 5 minutes at room temperature. The reaction is started by bringing the temperature to 37° C. and adding 16 μl substrate. Total reaction volume is 50 μl.
In the Tables 8, 9 and 10, A≦[…]<B≦0.1 μM; 0.1 μM<C≦1 μM; and 1 μM<D≦10 μM.

IC50 [µM]	SMILES
< 0.05	O=C(NO)c1cnc(N2C[C@@H]3C[C@H]2CN3c2cccc(S(F)(F)(F)(F)F)c2)nc1
0.1 to 1	O=C(NO)c1cnc(N2CC3CC2CO3)nc1 (stereo not shown) [2-(2-oxa-5-azabicyclo[2.2.1]heptan-5-yl)-N-hydroxypyrimidine-5-carboxamide]
< 0.05	N#Cc1cccc(N2CC3CC2CN3c2ncc(C(=O)NO)cn2)c1 (stereo not shown) [2-(5-(3-cyanophenyl)-2,5-diazabicyclo[2.2.1]heptan-2-yl)-N-hydroxypyrimidine-5-carboxamide]
< 0.05	O=C(NO)c1cnc(N2C[C@@H]3C[C@H]2CN3c2ccc3c(c2)OC(F)(F)O3)nc1 [2-((1S,4S)-5-(2,2-difluorobenzo[d][1,3]dioxol-5-yl)-2,5-diazabicyclo[2.2.1]heptan-2-yl)-N-hydroxypyrimidine-5-carboxamide]
0.05 to 0.1	O=C(NO)c1cnc(N2C[C@@H]3C[C@H]2CN3C(=O)C(c2ccccc2)c2ccccc2)nc1 [2-((1S,4S)-5-(2,2-diphenylacetyl)-2,5-diazabicyclo[2.2.1]heptan-2-yl)-N-hydroxypyrimidine-5-carboxamide]
< 0.05	O=C(NO)c1cnc(N2C[C@@H]3C[C@H]2CN3c2ccc(C(F)(F)F)cc2F)nc1 [2-((1S,4S)-5-(2-fluoro-4-(trifluoromethyl)phenyl)-2,5-diazabicyclo[2.2.1]heptan-2-yl)-N-hydroxypyrimidine-5-carboxamide]
< 0.05	O=C(NO)c1cnc(N2C[C@@H]3C[C@H]2CN3c2cc(C(F)(F)F)cc(C(F)(F)F)c2)nc1 [2-((1S,4S)-5-(3,5-bis(trifluoromethyl)phenyl)-2,5-diazabicyclo[2.2.1]heptan-2-yl)-N-hydroxypyrimidine-5-carboxamide]
< 0.05	CN(C)Cc1cccc(N2C[C@@H]3C[C@H]2CN3c2ncc(C(=O)NO)cn2)c1 [2-((1S,4S)-5-(3-((dimethylamino)methyl)phenyl)-2,5-diazabicyclo[2.2.1]heptan-2-yl)-N-hydroxypyrimidine-5-carboxamide]
< 0.05	O=C(NO)c1cnc(N2C[C@@H]3C[C@H]2CN3c2cccc(OC(F)F)c2)nc1 [2-((1S,4S)-5-(3-(difluoromethoxy)phenyl)-2,5-diazabicyclo[2.2.1]heptan-2-yl)-N-hydroxypyrimidine-5-carboxamide]
< 0.05	CN(C)C(=O)c1cccc(N2C[C@@H]3C[C@H]2CN3c2ncc(C(=O)NO)cn2)c1 [2-((1S,4S)-5-(3-(dimethylcarbamoyl)phenyl)-2,5-diazabicyclo[2.2.1]heptan-2-yl)-N-hydroxypyrimidine-5-carboxamide]
< 0.05	O=C(NO)c1cnc(N2C[C@@H]3C[C@H]2CN3c2cccc(F)c2)nc1 [2-((1S,4S)-5-(3-fluorophenyl)-2,5-diazabicyclo[2.2.1]heptan-2-yl)-N-hydroxypyrimidine-5-carboxamide]

SMILES	IC50 [µM]
O=C(NO)c1cnc(N2C[C@@H]3C[C@H]2CN3)nc1 [2-((1S,4S)-2,5-diazabicyclo[2.2.1]heptan-2-yl)-N-hydroxypyrimidine-5-carboxamide]	0.1 to 1

same assay, conditions: Table 10; read-out: HDAC Inhibition (IC50 μM) HDAC Enzyme

IC50 [µM]	SMILES
< 0.05	O=C(NO)c1cnc(N2CCCN(c3ncc(C(F)(F)F)cc3Cl)CC2)nc1
0.1 to 1	O=C(NO)c1cnc(N2C[C@@H]3C[C@]3(c3ccc(Cl)c(Cl)c3)C2)nc1
1 to 10	O=C(NO)c1ccc(OCCN2C(=O)c3ccccc3Oc3ccccc32)cc1Cl
0.05 to 0.1	O=C(NO)c1ccc(OCCN2C(=O)c3ccccc3Oc3ccccc32)cc1F
0.1 to 1	O=C(CCCCCN1C(=O)c2ccccc2N(C2CC2)c2ccccc21)NO
0.1 to 1	O=C(CCCCCCN1C(=O)c2ccccc2N(C2CC2)c2ccccc21)NO
0.1 to 1	O=C(C=C1c2ccccc2C=Cc2ccccc21)NO
1 to 10	O=C(C=C1c2ccccc2CCc2ccccc21)NO
0.1 to 1	O=C(CCCCCCCON=C1c2ccccc2CCc2ccccc21)NO
0.1 to 1	O=C(CCCCCCON=C1c2ccccc2CCc2ccccc21)NO
0.1 to 1	O=C(CCCCCON=C1c2ccccc2CCc2ccccc21)NO
0.1 to 1	O=C(CCCON=C1c2ccccc2CCc2ccccc21)NO
< 0.05	O=C(NO)c1ccc(CNC2c3ccccc3CCc3ccccc32)cc1
0.1 to 1	O=C(NO)c1ccc(CON=C2c3ccccc3CCc3ccccc32)cc1
0.05 to 0.1	O=C(/C=C/c1ccc(CNC2c3ccccc3CCc3ccccc32)cc1)NO
0.1 to 1	O=C(NO)c1ccc(ON=C2c3ccccc3CCc3ccccc32)cc1
< 0.05	O=C(NO)c1cnc(NC2c3ccccc3CCc3ccccc32)nc1
0.1 to 1	O=C(CCCCCON=c1c2ccccc2ccc2ccccc12)NO
0.1 to 1	O=C(CCCCON=C1c2ccccc2CCc2ccccc21)NO
0.1 to 1	O=C(NO)c1cnc(N2CCN(C3c4ccccc4CCc4ccccc43)CC2)nc1
< 0.05	O=C(NO)c1cnc(NCC2c3ccccc3CCc3ccccc32)nc1

IC50 [µM]	SMILES
< 0.05	CN(c1ncc(C(=O)NO)cn1)C1c2ccccc2CCc2ccccc21
< 0.05	O=C(NO)c1cnc(NC2c3ccccc3C=Cc3ccccc32)nc1
0.1 to 1	O=C(CCCCCCN1c2ccccc2Oc2ccccc2S1(=O)=O)NO
0.1 to 1	O=C(CCCCCCC(=O)NC1c2ccccc2C=Cc2ccccc21)NO
0.1 to 1	O=C(CCCCCC(=O)NC1c2ccccc2C=Cc2ccccc21)NO
< 0.05	O=C(NO)c1cnc(NC2c3ccccc3C=C(F)c3ccccc32)nc1 (stereo not shown)
< 0.05	O=C(NO)c1ccc(NC2c3ccccc3CCc3ccccc32)nc1
0.1 to 1	O=C(NO)c1cnc(C2c3ccccc3C=Cc3ccccc32)nc1
0.1 to 1	O=C(NO)c1cn2c(n1)sc1ccccc12
0.1 to 1	O=C(NO)c1ccc(COC2c3ccccc3CCc3ccccc32)cc1
0.1 to 1	O=C(NO)c1cccc(COC2c3ccccc3CCc3ccccc32)c1
0.1 to 1	O=C(NO)c1cccc(CNC2c3ccccc3CCc3ccccc32)c1
0.1 to 1	O=C(Cc1ccc(CN2C(=O)c3ccccc3Oc3ccccc32)cc1)NO
0.1 to 1	O=C(NO)c1cnc(N2C[C@H]3C[C@@]3(c3cccc(C(F)(F)F)c3)C2)nc1
0.1 to 1	O=C(NO)c1cnc(N2C[C@H]3C[C@@]3(c3ccc(C(F)(F)F)cc3)C2)nc1
0.1 to 1	O=C(CCn1cc(CN2C(=O)c3ccccc3Oc3ccccc32)nn1)NO
< 0.05	O=C(/C=C/c1ccc(CN2C(=O)c3ccccc3Oc3ccccc32)cc1)NO
0.05 to 0.1	O=C(NO)c1ccc(/C=C/CN2C(=O)c3ccccc3Oc3ccccc32)cc1
0.1 to 1	O=C(NO)c1cnc(NC2c3ccccc3-c3ccccc32)nc1 [2-(9H-fluoren-9-ylamino)-N-hydroxypyrimidine-5-carboxamide]
0.1 to 1	O=C(NO)c1cnc(N2C[C@H]3C[C@@]3(c3ccc(Cl)c(Cl)c3)C2)nc1 [2-((1R,5S)-1-(3,4-dichlorophenyl)-3-azabicyclo[3.1.0]hexan-3-yl)-N-hydroxypyrimidine-5-carboxamide]

SMILES	IC50 [µM]
O=C(/C=C/c1ccc(CN2C(=O)CN=C(c3ccccc3)c3ccccc32)cc1)NO	0.05 to 0.1

same assay, conditions: read-out: HDAC Inhibtion (IC50 μM) HDAC Enzyme

IC50 [µM]	SMILES
1 to 10	O=C(NO)c1ccc(C2=Nc3ccccc3S(=O)(=O)c3ccccc32)cc1
0.1 to 1	O=C(NO)c1ccc(C2=Nc3ccccc3[S+]([O-])c3ccccc32)cc1 (stereo not shown)
0.1 to 1	O=C(NO)c1ccc(C2=Nc3cncnc3N3CCc4cccc2c43)cc1
0.1 to 1	CN1CCN(C2=Nc3cc(C(=O)NO)ccc3Oc3ccccc32)CC1
